Data reported in patent US20240415914A1, “Water Dispersible Cannabinoid Compositions” (priority 2021, published 2024).
Like-named read-outs stand apart in the source and are kept apart here.

Key:
[1] = format: physicochemical; details: stored at room temperature (21-25° C.)
Procedure: At each time period, 0.05 g of powder was dissolved in 10 ml-15 of ethanol, diluted to fall within the analytical range, and injected into the LCMSMS for analysis.

[2] = Stability of cannabinoid and Vitamin E components of Beverage 2 (AB Red) stored at 8° C. and 21-25° C., LCMSMS over 570 days
Procedure: The LCMSMS was calibrated for 0-50 ng/ml cannabinoids with the same resin material used in the preparation of the concentrates. At each time period, 100 μml of beverage was diluted with 10 ml of methanol and injected into the LCMSMS for analysis.

C=C(C)[C@@H]1CCC(C)=C[C@H]1c1c(O)cc(CCC)cc1O [CBDV, cannabidivarin]
Stability in Powder Concentrate (content by LCMSMS) ([1]; day 0): 0.050 mg/g powder | Stability in Powder Concentrate (content by LCMSMS) ([1]; day 1): 0.051 mg/g powder | Stability in Powder Concentrate (content by LCMSMS) ([1]; day 2): 0.051 mg/g powder | Stability in Powder Concentrate (content by LCMSMS) ([1]; day 3): 0.048 mg/g powder | Stability in Powder Concentrate (content by LCMSMS) ([1]; day 5): 0.050 mg/g powder | Stability in Powder Concentrate (content by LCMSMS) ([1]; day 8): 0.051 mg/g powder | Stability in Powder Concentrate (content by LCMSMS) ([1]; day 9): 0.049 mg/g powder | Stability in Powder Concentrate (content by LCMSMS) ([1]; day 10): 0.050 mg/g powder | Stability in Powder Concentrate (content by LCMSMS) ([1]; day 11): 0.051 mg/g powder | Stability in Powder Concentrate (content by LCMSMS) ([1]; day 12): 0.051 mg/g powder | Stability in Powder Concentrate (content by LCMSMS) ([1]; day 15): 0.050 mg/g powder | Stability in Powder Concentrate (content by LCMSMS) ([1]; day 16): 0.049 mg/g powder | Stability in Powder Concentrate (content by LCMSMS) ([1]; day 17): 0.051 mg/g powder | Stability in Powder Concentrate (content by LCMSMS) ([1]; day 18): 0.051 mg/g powder | Stability in Powder Concentrate (content by LCMSMS) ([1]; day 19): 0.048 mg/g powder | Stability in Powder Concentrate (content by LCMSMS) ([1]; day 22): 0.049 mg/g powder | Stability in Powder Concentrate (content by LCMSMS) ([1]; day 23): 0.050 mg/g powder | Stability in Powder Concentrate (content by LCMSMS) ([1]; day 24): 0.051 mg/g powder | Stability in Powder Concentrate (content by LCMSMS) ([1]; day 25): 0.052 mg/g powder | Stability in Powder Concentrate (content by LCMSMS) ([1]; day 26): 0.050 mg/g powder | Stability in Powder Concentrate (content by LCMSMS) ([1]; day 29): 0.049 mg/g powder | Stability in Powder Concentrate (content by LCMSMS) ([1]; day 30): 0.051 mg/g powder | Stability in Powder Concentrate (content by LCMSMS) ([1]; day 60): 0.050 mg/g powder | Stability in Powder Concentrate (content by LCMSMS) ([1]; day 90): 0.050 mg/g powder | Stability in Powder Concentrate (content by LCMSMS) ([1]; day 120): 0.050 mg/g powder | Stability in Powder Concentrate (content by LCMSMS) ([1]; day 150): 0.051 mg/g powder | Stability in Powder Concentrate (content by LCMSMS) ([1]; day 180): 0.050 mg/g powder | Stability in Powder Concentrate (content by LCMSMS) ([1]; day 210): 0.049 mg/g powder | Stability in Powder Concentrate (content by LCMSMS) ([1]; day 240): 0.052 mg/g powder | Stability in Powder Concentrate (content by LCMSMS) ([1]; day 270): 0.051 mg/g powder | Stability in Powder Concentrate (content by LCMSMS) ([1]; day 300): 0.049 mg/g powder | Stability in Powder Concentrate (content by LCMSMS) ([1]; day 330): 0.052 mg/g powder | Stability in Powder Concentrate (content by LCMSMS) ([1]; day 360): 0.050 mg/g powder | Stability in Powder Concentrate (content by LCMSMS) ([1]; day 390): 0.049 mg/g powder | Stability in Powder Concentrate (content by LCMSMS) ([1]; day 420): 0.051 mg/g powder | Stability in Powder Concentrate (content by LCMSMS) ([1]; day 450): 0.049 mg/g powder | Stability in Powder Concentrate (content by LCMSMS) ([1]; day 480): 0.051 mg/g powder | Stability in Powder Concentrate (content by LCMSMS) ([1]; day 510): 0.049 mg/g powder | Stability in Powder Concentrate (content by LCMSMS) ([1]; day 540): 0.052 mg/g powder | Stability in Powder Concentrate (content by LCMSMS) ([1]; day 570): 0.048 mg/g powder | Stability of Cannabinoids in AB Red ([2]; 8° C., 0 days): 0.200 µg/mL | Stability of Cannabinoids in AB Red ([2]; 8° C., 1 days): 0.194 µg/mL | Stability of Cannabinoids in AB Red ([2]; 8° C., 2 days): 0.197 µg/mL | Stability of Cannabinoids in AB Red ([2]; 8° C., 3 days): 0.199 µg/mL | Stability of Cannabinoids in AB Red ([2]; 8° C., 5 days): 0.198 µg/mL | Stability of Cannabinoids in AB Red ([2]; 8° C., 8 days): 0.198 µg/mL | Stability of Cannabinoids in AB Red ([2]; 8° C., 9 days): 0.201 µg/mL | Stability of Cannabinoids in AB Red ([2]; 8° C., 10 days): 0.194 µg/mL | Stability of Cannabinoids in AB Red ([2]; 8° C., 11 days): 0.195 µg/mL | Stability of Cannabinoids in AB Red ([2]; 8° C., 12 days): 0.198 µg/mL | Stability of Cannabinoids in AB Red ([2]; 8° C., 15 days): 0.194 µg/mL | Stability of Cannabinoids in AB Red ([2]; 8° C., 16 days): 0.195 µg/mL | Stability of Cannabinoids in AB Red ([2]; 8° C., 17 days): 0.195 µg/mL | Stability of Cannabinoids in AB Red ([2]; 8° C., 18 days): 0.195 µg/mL | Stability of Cannabinoids in AB Red ([2]; 8° C., 19 days): 0.199 µg/mL | Stability of Cannabinoids in AB Red ([2]; 8° C., 22 days): 0.200 µg/mL | Stability of Cannabinoids in AB Red ([2]; 8° C., 23 days): 0.194 µg/mL | Stability of Cannabinoids in AB Red ([2]; 8° C., 24 days): 0.197 µg/mL | Stability of Cannabinoids in AB Red ([2]; 8° C., 25 days): 0.199 µg/mL | Stability of Cannabinoids in AB Red ([2]; 8° C., 26 days): 0.199 µg/mL | Stability of Cannabinoids in AB Red ([2]; 8° C., 29 days): 0.197 µg/mL | Stability of Cannabinoids in AB Red ([2]; 8° C., 30 days): 0.200 µg/mL | Stability of Cannabinoids in AB Red ([2]; 8° C., 60 days): 0.199 µg/mL | Stability of Cannabinoids in AB Red ([2]; 8° C., 90 days): 0.196 µg/mL | Stability of Cannabinoids in AB Red ([2]; 8° C., 120 days): 0.193 µg/mL | Stability of Cannabinoids in AB Red ([2]; 8° C., 150 days): 0.198 µg/mL | Stability of Cannabinoids in AB Red ([2]; 8° C., 180 days): 0.192 µg/mL | Stability of Cannabinoids in AB Red ([2]; 8° C., 210 days): 0.193 µg/mL | Stability of Cannabinoids in AB Red ([2]; 8° C., 240 days): 0.192 µg/mL | Stability of Cannabinoids in AB Red ([2]; 8° C., 270 days): 0.195 µg/mL | Stability of Cannabinoids in AB Red ([2]; 8° C., 300 days): 0.193 µg/mL | Stability of Cannabinoids in AB Red ([2]; 8° C., 330 days): 0.191 µg/mL | Stability of Cannabinoids in AB Red ([2]; 8° C., 390 days): 0.194 µg/mL | Stability of Cannabinoids in AB Red ([2]; 8° C., 420 days): 0.193 µg/mL | Stability of Cannabinoids in AB Red ([2]; 8° C., 450 days): 0.195 µg/mL | Stability of Cannabinoids in AB Red ([2]; 8° C., 480 days): 0.190 µg/mL | Stability of Cannabinoids in AB Red ([2]; 8° C., 510 days): 0.184 µg/mL | Stability of Cannabinoids in AB Red ([2]; 8° C., 540 days): 0.185 µg/mL | Stability of Cannabinoids in AB Red ([2]; 8° C., 570 days): 0.183 µg/mL | Stability of Cannabinoids in AB Red ([2]; 21-25° C., 0 days): 0.20 µg/mL | Stability of Cannabinoids in AB Red ([2]; 21-25° C., 1 days): 0.20 µg/mL | Stability of Cannabinoids in AB Red ([2]; 21-25° C., 2 days): 0.20 µg/mL | Stability of Cannabinoids in AB Red ([2]; 21-25° C., 3 days): 0.20 µg/mL | Stability of Cannabinoids in AB Red ([2]; 21-25° C., 5 days): 0.19 µg/mL | Stability of Cannabinoids in AB Red ([2]; 21-25° C., 8 days): 0.20 µg/mL | Stability of Cannabinoids in AB Red ([2]; 21-25° C., 9 days): 0.20 µg/mL | Stability of Cannabinoids in AB Red ([2]; 21-25° C., 10 days): 0.20 µg/mL | Stability of Cannabinoids in AB Red ([2]; 21-25° C., 11 days): 0.20 µg/mL | Stability of Cannabinoids in AB Red ([2]; 21-25° C., 12 days): 0.20 µg/mL | Stability of Cannabinoids in AB Red ([2]; 21-25° C., 15 days): 0.20 µg/mL | Stability of Cannabinoids in AB Red ([2]; 21-25° C., 16 days): 0.19 µg/mL | Stability of Cannabinoids in AB Red ([2]; 21-25° C., 17 days): 0.20 µg/mL | Stability of Cannabinoids in AB Red ([2]; 21-25° C., 18 days): 0.20 µg/mL | Stability of Cannabinoids in AB Red ([2]; 21-25° C., 19 days): 0.19 µg/mL | Stability of Cannabinoids in AB Red ([2]; 21-25° C., 22 days): 0.20 µg/mL | Stability of Cannabinoids in AB Red ([2]; 21-25° C., 23 days): 0.19 µg/mL | Stability of Cannabinoids in AB Red ([2]; 21-25° C., 24 days): 0.19 µg/mL | Stability of Cannabinoids in AB Red ([2]; 21-25° C., 25 days): 0.19 µg/mL | Stability of Cannabinoids in AB Red ([2]; 21-25° C., 26 days): 0.19 µg/mL | Stability of Cannabinoids in AB Red ([2]; 21-25° C., 29 days): 0.19 µg/mL | Stability of Cannabinoids in AB Red ([2]; 21-25° C., 30 days): 0.20 µg/mL | Stability of Cannabinoids in AB Red ([2]; 21-25° C., 60 days): 0.20 µg/mL | Stability of Cannabinoids in AB Red ([2]; 21-25° C., 90 days): 0.19 µg/mL | Stability of Cannabinoids in AB Red ([2]; 21-25° C., 120 days): 0.19 µg/mL | Stability of Cannabinoids in AB Red ([2]; 21-25° C., 150 days): 0.20 µg/mL | Stability of Cannabinoids in AB Red ([2]; 21-25° C., 180 days): 0.20 µg/mL | Stability of Cannabinoids in AB Red ([2]; 21-25° C., 210 days): 0.19 µg/mL | Stability of Cannabinoids in AB Red ([2]; 21-25° C., 240 days): 0.20 µg/mL | Stability of Cannabinoids in AB Red ([2]; 21-25° C., 270 days): 0.20 µg/mL | Stability of Cannabinoids in AB Red ([2]; 21-25° C., 300 days): 0.19 µg/mL | Stability of Cannabinoids in AB Red ([2]; 21-25° C., 330 days): 0.19 µg/mL | Stability of Cannabinoids in AB Red ([2]; 21-25° C., 390 days): 0.19 µg/mL | Stability of Cannabinoids in AB Red ([2]; 21-25° C., 420 days): 0.19 µg/mL | Stability of Cannabinoids in AB Red ([2]; 21-25° C., 450 days): 0.19 µg/mL | Stability of Cannabinoids in AB Red ([2]; 21-25° C., 480 days): 0.19 µg/mL | Stability of Cannabinoids in AB Red ([2]; 21-25° C., 510 days): 0.19 µg/mL | Stability of Cannabinoids in AB Red ([2]; 21-25° C., 540 days): 0.19 µg/mL | Stability of Cannabinoids in AB Red ([2]; 21-25° C., 570 days): 0.18 µg/mL
